Reference: ChEMBL document CHEMBL1201862, “PubChem BioAssay data set” (2004)
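Assay format: 96-well plates, 48-hour exposure. GI50 marks 50% less growth.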 Active and inactive are the calls of the source. Rule as the data show it: active = GI50 up to about 1.1 µM and inactive = higher.

Key:
Test in all cases: growth of human tumour cells (NCI), 48 h
786-0 = tested on: 786-0
A498 = tested on: A498
ACHN = tested on: ACHN
CCRF-CEM = tested on: CCRF-CEM
HOP-92 = tested on: HOP-92
HT-29 = tested on: HT-29
MOLT-4 = tested on: MOLT-4
NCI-H226 = tested on: NCI-H226
NCI-H23 = tested on: NCI-H23
RPMI-8226 = tested on: RPMI-8226
SF-268 = tested on: SF-268
SF-539 = tested on: SF-539
SK-MEL-5 = tested on: SK-MEL-5
SK-OV-3 = tested on: SK-OV-3
SR = tested on: SR
TK-10 = tested on: TK-10
U-251 = tested on: U-251

Measured: GI50

CCOC(=O)NC1CC2CCC1(OC)C=C2C (stereo unspecified)
inactive: 786-0 > 100 µM | A498 > 100 µM | ACHN > 100 µM | CCRF-CEM > 100 µM | HOP-92 > 100 µM | HT-29 > 100 µM | MOLT-4 > 100 µM | NCI-H226 > 100 µM | NCI-H23 > 100 µM | RPMI-8226 > 100 µM | SF-268 > 100 µM | SF-539 > 100 µM | SK-MEL-5 > 100 µM | SK-OV-3 > 100 µM | SR > 100 µM | TK-10 > 100 µM | U-251 > 100 µM

CCNC(C)Cc1ccccc1 (stereo unspecified)
inactive: 786-0 > 100 µM | A498 > 100 µM | ACHN > 100 µM | CCRF-CEM > 100 µM | HOP-92 > 100 µM | HT-29 > 100 µM | NCI-H226 > 100 µM | NCI-H23 > 100 µM | RPMI-8226 > 100 µM | SF-268 > 100 µM | SF-539 > 100 µM | SK-MEL-5 > 100 µM | SK-OV-3 > 100 µM | SR > 100 µM | TK-10 > 100 µM | U-251 > 100 µM

COC(=O)c1nc(N)nc(C(=O)OC)c1C(=O)c1ccccc1
inactive: 786-0 > 100 µM | A498 > 100 µM | ACHN > 100 µM | CCRF-CEM > 100 µM | HOP-92 96.8 µM | HT-29 > 100 µM | MOLT-4 > 100 µM | NCI-H23 > 100 µM | RPMI-8226 > 100 µM | SF-268 > 100 µM | SF-539 > 100 µM | SK-MEL-5 > 100 µM | SK-OV-3 > 100 µM | SR > 100 µM | TK-10 > 100 µM | U-251 > 100 µM

CC(C)(C)C1=CC(=N/N=c2\scc(-c3ccccc3)n2Cc2ccccc2)C=C(C(C)(C)C)C1=O
inactive: 786-0 > 100 µM | A498 > 100 µM | ACHN > 100 µM | CCRF-CEM > 100 µM | HT-29 > 100 µM | MOLT-4 > 100 µM | NCI-H226 > 100 µM | NCI-H23 > 100 µM | SF-268 > 100 µM | SF-539 > 100 µM | SK-MEL-5 > 100 µM | SR > 100 µM | U-251 > 100 µM

CC1=CC(C)(C)N=C2SC(c3ccc(N)cc3)=NN12
inactive: 786-0 57.1 µM | A498 63.4 µM | ACHN 69.3 µM | CCRF-CEM 27.9 µM | HOP-92 51.8 µM | HT-29 32.1 µM | MOLT-4 42.2 µM | NCI-H226 > 94.6 µM | NCI-H23 > 81.1 µM | RPMI-8226 21.1 µM | SF-268 > 67.6 µM | SF-539 > 100 µM | SK-MEL-5 70.3 µM | SK-OV-3 > 100 µM | SR 46.9 µM | TK-10 > 100 µM | U-251 59.8 µM

COc1ccc(N2C(=O)[C@@H]3[C@@H]4CC(C)CC[C@@H]4c4c([nH]c5ccccc45)[C@@H]3C2=O)cc1 (stereo partly specified)
inactive: 786-0 7.45 µM | A498 16.4 µM | ACHN 7.36 µM | CCRF-CEM 24.2 µM | HOP-92 5.92 µM | HT-29 47.4 µM | MOLT-4 19.8 µM | NCI-H226 7.38 µM | NCI-H23 15.5 µM | RPMI-8226 > 10 µM | SF-268 13.3 µM | SF-539 8.38 µM | SK-MEL-5 34 µM | SK-OV-3 7.98 µM | SR 12.6 µM | TK-10 18.8 µM | U-251 11.4 µM

CN/N=C(/Cc1occc(=O)c1O)C(=O)Nc1ccc(C)c(C)c1
inactive: 786-0 > 100 µM | A498 > 100 µM | ACHN > 100 µM | CCRF-CEM > 100 µM | HOP-92 > 100 µM | HT-29 > 100 µM | MOLT-4 > 100 µM | NCI-H226 > 100 µM | NCI-H23 > 100 µM | RPMI-8226 > 100 µM | SF-268 > 100 µM | SF-539 > 100 µM | SK-MEL-5 > 100 µM | SK-OV-3 > 100 µM | SR > 100 µM | TK-10 > 100 µM | U-251 > 100 µM

O=C(Nc1c(Cl)cc([N+](=O)[O-])cc1Cl)C(=O)C(C1OC(=O)c2ccccc21)[N+](=O)[O-] (stereo unspecified)
inactive: 786-0 > 100 µM | A498 31.6 µM | ACHN > 100 µM | CCRF-CEM > 100 µM | HOP-92 15.1 µM | HT-29 > 100 µM | MOLT-4 > 100 µM | NCI-H226 > 100 µM | NCI-H23 > 100 µM | RPMI-8226 89.9 µM | SF-268 > 100 µM | SF-539 > 100 µM | SK-MEL-5 > 100 µM | SK-OV-3 > 100 µM | SR > 100 µM | TK-10 > 100 µM | U-251 > 100 µM

O=C(CCN(C(=O)O)S(=O)(=O)c1ccc(NC(=O)c2ccccc2)cc1)NC1CCCCC1
inactive: 786-0 12.6 µM | A498 > 100 µM | ACHN > 100 µM | CCRF-CEM 27.6 µM | HOP-92 > 100 µM | HT-29 21.6 µM | MOLT-4 21.4 µM | NCI-H226 > 100 µM | NCI-H23 > 100 µM | RPMI-8226 16.5 µM | SF-268 > 100 µM | SF-539 > 100 µM | SK-MEL-5 > 100 µM | SK-OV-3 > 100 µM | SR 17.8 µM | TK-10 > 100 µM | U-251 36.3 µM

CC(=O)OCC1OC(n2cc([N+](=O)[O-])c(=O)[nH]c2=O)C(OC(C)=O)C(OC(C)=O)C1OC(C)=O (stereo unspecified)
inactive: 786-0 > 100 µM | A498 > 100 µM | ACHN > 100 µM | CCRF-CEM > 100 µM | HOP-92 > 100 µM | HT-29 > 100 µM | MOLT-4 > 100 µM | NCI-H226 42.2 µM | NCI-H23 > 100 µM | RPMI-8226 > 100 µM | SF-268 > 100 µM | SK-MEL-5 > 100 µM | SK-OV-3 > 100 µM | SR > 100 µM | TK-10 > 100 µM | U-251 > 100 µM

CC(C)=CCCC(C)[C@H]1CC(O)C2(C)C3=CCC4C(C)(C)[C@@H](O)CC[C@]4(C)C3=CC[C@]12C (stereo partly specified)
inactive: 786-0 1.55 µM | A498 3.98 µM | CCRF-CEM 5.25 µM | HOP-92 3.27 µM | HT-29 2.72 µM | MOLT-4 15.2 µM | NCI-H226 3.74 µM | NCI-H23 3.72 µM | RPMI-8226 3.27 µM | SF-268 6.01 µM | SF-539 2.09 µM | SK-MEL-5 14.3 µM | SK-OV-3 7.82 µM | SR 11.6 µM | TK-10 16.7 µM | U-251 2.28 µM

CC(=O)N/C=C/c1cc(O)ccc1O
inactive: 786-0 33.2 µM | A498 51.3 µM | ACHN 18.9 µM | CCRF-CEM 25.3 µM | HOP-92 18.7 µM | HT-29 32.1 µM | MOLT-4 11.9 µM | NCI-H226 46.3 µM | NCI-H23 34.4 µM | RPMI-8226 40.3 µM | SF-268 31.8 µM | SF-539 35.5 µM | SK-MEL-5 36.5 µM | SK-OV-3 > 58.5 µM | SR 22 µM | TK-10 39.2 µM | U-251 37.2 µM
